Laboratory results reported in paper PMC8445441, “Elucidating the mechanism by which synthetic helper peptides sensitize Pseudomonas aeruginosa to multiple antibiotics” (PLoS Pathogens, 2021).
Read-outs that look alike come from different tables or passages of the source.

What was measured:
P. aeruginosa AUMC-Pa-3 = experiment: microbe, parasite or virus in culture; details: strain AUMC-Pa-3
How it was run: (§1)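 CLSI broth dilution; MHB; ~1 × 10^6 CFU/mL suspension mixed equal volume with drug; 37 °C for 18 h; visual read; triplicate. Broth sometimes supplemented with PG, PE, PC, CL, LPS, MgCl2, CaCl2 or PAβN.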

P. aeruginosa AUMC-Pa-4 = experiment: microbe, parasite or virus in culture; details: strain AUMC-Pa-4
How it was run: as §1

P. aeruginosa AUMC-Pa-5 = experiment: microbe, parasite or virus in culture; details: strain AUMC-Pa-5
How it was run: as §1

P. aeruginosa AUMC-Pa-6 = experiment: microbe, parasite or virus in culture; details: strain AUMC-Pa-6
How it was run: as §1

P. aeruginosa PAO1 = experiment: microbe, parasite or virus in culture; details: Pseudomonas aeruginosa, PAO1, 18 h, read-out: MICa: the MIC of antibiotics, S1 Table; macrolide alone; PAO1
How it was run: as §1

P. aeruginosa ATCC27853 = experiment: microbe, parasite or virus in culture; design: MICa: MIC of the antibiotic / MICac: MIC of the antibiotic in the combination: unit not given beside the values; details: strain ATCC27853
How it was run: as §1

P. aeruginosa NR-31040 = experiment: microbe, parasite or virus in culture; design: MICa: MIC of the antibiotic / MICac: MIC of the antibiotic in the combination: unit not given beside the values; details: strain NR-31040
How it was run: as §1

P. aeruginosa NR-31041 = experiment: microbe, parasite or virus in culture; design: MICa: MIC of the antibiotic / MICac: MIC of the antibiotic in the combination: unit not given beside the values; details: strain NR-31041
How it was run: as §1

P. aeruginosa PA14 = experiment: microbe, parasite or virus in culture; design: MICa: MIC of the antibiotic / MICac: MIC of the antibiotic in the combination: unit not given beside the values; details: strain PA14
How it was run: as §1

P. aeruginosa PAK = experiment: microbe, parasite or virus in culture; design: MICa: MIC of the antibiotic / MICac: MIC of the antibiotic in the combination: unit not given beside the values; details: strain PAK
How it was run: as §1

P. aeruginosa HM-214 = details: strain HM-214; antibiotic + D-11 (MICb/MICbc 128/4)
How it was run: as §1

P. aeruginosa AUMC-Pa-1 = details: strain AUMC-Pa-1; antibiotic + D-11 (MICb/MICbc 128/4)
How it was run: as §1

P. aeruginosa AUMC-Pa-2 = details: strain AUMC-Pa-2; antibiotic + D-11 (MICb/MICbc 64/4)
How it was run: as §1

[1] = system: clinical P. aeruginosa isolates; experiment: microbe, parasite or virus in culture; details: Pseudomonas aeruginosa, 18 h, antibiotic alone
How it was run: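 MIC is the lowest drug concentration showing no visible growth after 18 h at 37 °C. Two-fold dilutions in MHB were combined with an equal volume of bacterial suspension (about 1 × 10^6 CFU/mL), following CLSI broth microdilution, in triplicate.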

[2] = antibiotic + D-11 (MICb/MICbc 128/4)
[3] = antibiotic alone, unit not given
[4] = with D-11 at MICbc 4, unit not given
[5] = antibiotic + D-11 (MICb/MICbc 64/4)

CC[C@H]1OC(=O)[C@H](C)C(=O)[C@H](C)[C@@H](O[C@@H]2O[C@H](C)C[C@H](N(C)C)[C@H]2O)[C@](C)(OC)C[C@@H](C)C(=O)[C@H](C)[C@H]2N(CCCCn3cnc(-c4cccnc4)c3)C(=O)O[C@]12C [Telithromycin]
FICI (P. aeruginosa AUMC-Pa-3; [2]): 0.063 | MICa: MIC of the antibiotic (P. aeruginosa AUMC-Pa-3; [3]): 64 | MICac: MIC of the antibiotic in the combination (P. aeruginosa AUMC-Pa-3; [4]): 2 | FICI (P. aeruginosa AUMC-Pa-4; [2]): 0.531 | MICa: MIC of the antibiotic (P. aeruginosa AUMC-Pa-4; [3]): 64 | MICac: MIC of the antibiotic in the combination (P. aeruginosa AUMC-Pa-4; [4]): 32 | FICI (P. aeruginosa AUMC-Pa-5; [5]): 0.563 | MICa: MIC of the antibiotic (P. aeruginosa AUMC-Pa-5; [3]): 64 | MICac: MIC of the antibiotic in the combination (P. aeruginosa AUMC-Pa-5; [4]): 32 | FICI (P. aeruginosa AUMC-Pa-6; [5]): 0.563 | MICa: MIC of the antibiotic (P. aeruginosa AUMC-Pa-6; [3]): 64 | MICac: MIC of the antibiotic in the combination (P. aeruginosa AUMC-Pa-6; [4]): 32 | MIC (P. aeruginosa PAO1): 64 µM | FICI (P. aeruginosa ATCC27853; antibiotic + D-11 (MICb/MICbc 32/4)): 0.250 | MICa: MIC of the antibiotic (P. aeruginosa ATCC27853; [3]): 64 | MICac: MIC of the antibiotic in the combination (P. aeruginosa ATCC27853; [4]): 8 | FICI (P. aeruginosa NR-31040; [2]): 0.531 | MICa: MIC of the antibiotic (P. aeruginosa NR-31040; [3]): 128 | MICac: MIC of the antibiotic in the combination (P. aeruginosa NR-31040; [4]): 64 | FICI (P. aeruginosa NR-31041; [5]): 0.188 | MICa: MIC of the antibiotic (P. aeruginosa NR-31041; [3]): 128 | MICac: MIC of the antibiotic in the combination (P. aeruginosa NR-31041; [4]): 16 | FICI (P. aeruginosa PA14; [2]): 0.281 | MICa: MIC of the antibiotic (P. aeruginosa PA14; [3]): 64 | MICac: MIC of the antibiotic in the combination (P. aeruginosa PA14; [4]): 16 | FICI (P. aeruginosa PAK; [5]): 0.313 | MICa: MIC of the antibiotic (P. aeruginosa PAK; [3]): 64 | MICac: MIC of the antibiotic in the combination (P. aeruginosa PAK; [4]): 16 | FICI (P. aeruginosa HM-214): 0.156 | FICI (P. aeruginosa AUMC-Pa-1): 0.156 | FICI (P. aeruginosa AUMC-Pa-2): 0.313 | MIC ([1]; read-out: Antibiotic sensibility (MIC) of clinical P. aeruginosa isolate AUMC-Pa-1, strain AUMC-Pa-1): 128 µM | MIC ([1]; read-out: Antibiotic sensibility (MIC) of clinical P. aeruginosa isolate AUMC-Pa-2, strain AUMC-Pa-2): 64 µM | MIC ([1]; read-out: Antibiotic sensibility (MIC) of clinical P. aeruginosa isolate AUMC-Pa-3, strain AUMC-Pa-3): 64 µM | MIC ([1]; read-out: Antibiotic sensibility (MIC) of clinical P. aeruginosa isolate AUMC-Pa-4, strain AUMC-Pa-4): 64 µM | MIC ([1]; read-out: Antibiotic sensibility (MIC) of clinical P. aeruginosa isolate AUMC-Pa-5, strain AUMC-Pa-5): 64 µM | MIC ([1]; read-out: Antibiotic sensibility (MIC) of clinical P. aeruginosa isolate AUMC-Pa-6, strain AUMC-Pa-6): 64 µM | MIC ([1]; read-out: Antibiotic sensibility (MIC) of clinical P. aeruginosa isolate HM-214, strain HM-214): 128 µM | MIC ([1]; read-out: Antibiotic sensibility (MIC) of clinical P. aeruginosa isolate NR-31040, strain NR-31040): 128 µM | MIC ([1]; read-out: Antibiotic sensibility (MIC) of clinical P. aeruginosa isolate NR-31041, strain NR-31041): 128 µM
